Experiment [1] deals with P. falciparum NF54 gametocytes stage IV/V. Kind of experiment: Gametocyte PrestoBlue resazurin assay Mancama. The format is cell-based. The following applies: reference control. For orientation: Alamar Blue is a resazurin reagent that responds to reducing activity.
For another experiment, the system named is P. falciparum Dd2. Kind of experiment: Malaria Sybr Green I Fluorescence assay Dd2 Horrocks. The format is cell-based. The following applies: Plasmodium falciparum, DD2, 48 h; read-out: P. falciparum Dd2 asexual blood stage EC50 Horrocks. On the procedure:
Column S: Horrocks group (data presented first in this paper). Asexual Dd2 inhibition of growth (IC50s): IC50 for the Dd2 clone of Plasmodium falciparum were determined using the Malaria Sybr Green I Fluorescence assay. Drug assays were initiated using a 2% trophozoite stage parasitaemia and 2% hematocrit and fluorescence measured after 48 h as fully described in Hasenkamp et al.[53]. Log dose-response curves were plotted in GraphPad Prism (v5.0). The controls for Dd2 using our 48hr Sybr Green I assay were (rounded to nearest nM): Chloroquine 209nM, Mefloquine 11nM, Quinine 246nM, Dihydroartemisinin 4nM, Artemether 10nM, Atovaquone 3nM.

A further experiment deals with T. cruzi Tulahuen. The following applies: ref [84]; read-out: Trypanosoma cruzi Tulahuen intracellular amastigotes in MRC5 cell line EC50; cited from earlier work.
The subject of another experiment is P. falciparum 3D7. The experiment in a line: [3H]-hypoxanthine growth inhibition, modified HCO3- or O2. The format is cell-based. The settings on record: for IC50: Plasmodium falciparum.
Experiment [2] has as its system P. falciparum 3D7 trophozoites. Kind of experiment: Metabolomic fingerprint profiling LC-MS. The format is cell-based, Plasmodium falciparum. Also on record: UDP-D-glucose / ADP-D-glucose: unit not given here.
Experiment [3] concerns P. falciparum NF54 late-stage gametocytes. The following applies: ref [61]; cited from earlier work.
The test system of experiment [4] is Naegleria fowleri trophozoites. Kind of experiment: Naegleria fowleri CellTiter-Glo. The following applies: Naegleria fowleri. In kind it is cell-based. An excerpt: Columns CY-CZ: Kyle group (data presented first in this paper). Naegleria fowleri trophozoite growth inhibition. Methods: The CellTiter-Glo (CTG) 2.0 luminescent assay is a quantitative assay that assesses the presence of cellular ATP in lysed cells, displaying an output in Relative Light Units (RLU’s). This was previously standardised, for the growth and development of Naegleria fowleri trophozoites in-vitro to assess drug susceptibility on this parasite. […] These included two drug-like molecules MMV665807 (St. Jude’s Children’s Hospital) and MMV665979 (The Genomics Institute of the Novartis Research Foundation - GNF) and two Probe-like molecules, MMV006203 (GNF) & MMV006172 (GNF; GlaxoSmithKline - GSK). […] However, these Malaria Box compounds were all toxic to zebrafish and mammalian cells.

For a further experiment, the system named is P. falciparum. Kind of experiment: EC50 listed in S2 Table Metabolomics (used to set the concentration tested). The settings on record: Plasmodium falciparum; EC50 used for Factor_XEC50 in metabolomics; read-out: EC50_nM. In kind it is cell-based.
A further experiment concerns the target PfPMT (Plasmodium falciparum, UniProt Q8IDQ9). The experiment in a line: PfPMT gene replacement yeast growth. The settings on record: 100µM.
The test system of a further experiment is Toxoplasma gondii TS-4. The settings on record: ref [46]; cited from earlier work.
The subject of experiment [5] is Leishmania infantum MHOM/MA/BE/67. The settings on record: Run 1 and Run 2; ref [88]; read-out: L. infantum IC50 positive control; cited from earlier work.
Experiment [6] concerns P. falciparum NF54Pfs16 gametocytes stage I-III. The following applies: ref [61]; read-out: gametocyte early stage (I-III) luciferase EC50; cited from earlier work.
In experiment [7] the test system is P. falciparum NF54Pfs16 gametocytes stage IV-V. The settings on record: ref [62]; read-out: gametocyte late stage (IV-V) luciferase EC50; cited from earlier work.
The subject of experiment [8] is P. falciparum NF54 GFP-Pfs16 gametocytes stage I-III. The settings on record: ref [64]; read-out: gametocyte early stage (I-III) GFP-MTR EC50; cited from earlier work.
For experiment [9], the system named is P. falciparum NF54 GFP-Pfs16 gametocytes stage IV-V. The settings on record: ref [64]; read-out: gametocyte late stage (IV-V) GFP-MTR EC50; cited from earlier work.
Where [10] appears, read: metabolite level change after treatment.

This is an account of results in article PMC4965013, “Open Source Drug Discovery with the Malaria Box Compound Collection for Neglected Diseases and Beyond” (PLoS Pathogens, 2016).

Values joined by “and” are separate entries in the source; they are usually repeats but may differ in a detail not shown here. Equal entries are not always repeated. Where two headings read alike, the source gives them in different places.

Sequence of PfPMT (Q8IDQ9 whole entry): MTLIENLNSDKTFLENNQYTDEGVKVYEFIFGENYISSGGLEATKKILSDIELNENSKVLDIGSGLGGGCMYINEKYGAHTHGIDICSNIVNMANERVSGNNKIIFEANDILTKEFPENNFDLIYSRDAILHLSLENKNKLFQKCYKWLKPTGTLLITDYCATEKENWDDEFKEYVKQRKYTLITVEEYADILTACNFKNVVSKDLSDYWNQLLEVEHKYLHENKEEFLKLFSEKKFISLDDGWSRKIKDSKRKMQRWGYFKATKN

As to `C[C@H]1[C@@H](O)O[C@@H]2O[C@@]3(C)CC[C@H]4[C@H](C)CC[C@@H]1[C@@]24OO3` [Dihydroartemisinin, reference compound], the “DHA inhibition of stage IV/V gametocytes” value in experiment [1] was found to be 84%. The EC50 in the experiment on P. falciparum Dd2 came out at 4 nM.
As to `CCOc1cccc2sc(N(Cc3cccnc3)C(=O)C3CCCCC3)nc12` [MMV001230], the EC50 in the experiment on T. cruzi Tulahuen is 156 nM.
Take `CN1CCN(c2ccc(Nc3c4ccccc4nc4ccccc34)cc2)CC1` [MMV006172]: in the experiment with P. falciparum 3D7, the “fold change (IC50reduced/IC50normal)” value stood at 2.7. The IC50 with P. falciparum 3D7 (3D7, read-out: P. falciparum 3D7 IC50 HCO3- (2g/L), standard media) is 98 nM. Also, in the experiment with P. falciparum 3D7 (3D7, HCO3- reduced media, read-out: P. falciparum 3D7 IC50 HCO3- reduced), the IC50 was determined as 269 nM. In addition, the Acetyllysine in experiment [2] (S2 Table Metabolomics, metabolite Acetyllysine) is 0.6429. For the same compound, in experiment [2] (S2 Table Metabolomics, metabolite N-acetyl-L-ornithine), the N-acetyl-L-ornithine is on record as -0.2511. Besides, in experiment [2] (S2 Table Metabolomics, metabolite N-carbamoyl-L-aspartate), the N-carbamoyl-L-aspartate turned out to be 0.8815. Further, the NADPH in experiment [2] (S2 Table Metabolomics, metabolite NADPH) came out at 2.534. For the same compound, the dAMP in experiment [2] (S2 Table Metabolomics, metabolite dAMP) was found to be 1.267. Also, in experiment [2] (S2 Table Metabolomics, metabolite dCMP), the dCMP was -0.3053. In experiment [2] (S2 Table Metabolomics, metabolite dTDP), the dTDP was 0.7092. Further, the dTMP in [2] (S2 Table Metabolomics, metabolite dTMP) is reported as 0.8691. Further, in [2] (S2 Table Metabolomics, metabolite dTTP), the dTTP was -0.715. In addition, the dihydroorotate in experiment [2] (S2 Table Metabolomics, metabolite dihydroorotate) is recorded as 1.4632. Further, in experiment [2] (S2 Table Metabolomics, metabolite orotate), the orotate is recorded as 0.5213. Also, in experiment [2] (S2 Table Metabolomics, peptide DLH), the DLH is given as -4.586. This compound returned a DLS/SDL/SID in [2] (S2 Table Metabolomics, peptide DLS/SDL/SID) of -3.823. Also, in experiment [2] (S2 Table Metabolomics, peptide PD), the PD is -0.4464. In experiment [2] (S2 Table Metabolomics, peptide PEE), this compound yielded a PEE of -0.6694. For the same compound, in [2] (S2 Table Metabolomics, peptide PVNF), the PVNF is reported as -3.7. In addition, the 3-phosphoglycerate in experiment [2] (metabolite 3-phosphoglycerate, S2 Table Metabolomics) is -0.655. Besides, the ADP-D-glucose in experiment [2] (metabolite ADP-D-glucose, S2 Table Metabolomics) was -0.09693. Further, the ATP in experiment [2] (metabolite ATP, S2 Table Metabolomics) was -0.7842. Also, the CDP in experiment [2] (metabolite CDP, S2 Table Metabolomics, change in metabolite level after compound treatment) came out at 1.006. For the same compound, the D-sedoheptulose-1/7-phosphate in experiment [2] (metabolite D-sedoheptulose-1/7-phosphate, S2 Table Metabolomics, change in metabolite level after compound treatment) worked out at 0.2573. Besides, the FAD in experiment [2] (metabolite FAD, S2 Table Metabolomics) came to 0.1782. In addition, the GMP in experiment [2] (metabolite GMP, S2 Table Metabolomics, change in metabolite level after compound treatment) was -0.3671. Also, the “NAD+” value in [2] (metabolite NAD+, S2 Table Metabolomics) is recorded as 0.5266. Besides, the “NADP+” value in [2] (metabolite NADP+, S2 Table Metabolomics) was -0.7002. Also, the “Octoluse Bisphosphate” value in experiment [2] (metabolite Octoluse Bisphosphate, S2 Table Metabolomics, change in metabolite level after compound treatment) is reported as -0.1204. The Pyroglutamic acid in [2] (metabolite Pyroglutamic acid, S2 Table Metabolomics) is -0.2696. Further, the UDP-D-glucose in experiment [2] (metabolite UDP-D-glucose, S2 Table Metabolomics) worked out at 0.05631. The UDP-D-glucuronate in experiment [2] (metabolite UDP-D-glucuronate, S2 Table Metabolomics) was -0.2935. Further, the UDP-N-acetyl-glucosamine in [2] (metabolite UDP-N-acetyl-glucosamine, S2 Table Metabolomics) came to 0.1613. In addition, the UDP in [2] (metabolite UDP, S2 Table Metabolomics, change in metabolite level after compound treatment) was found to be 0.649. The UMP in experiment [2] (metabolite UMP, S2 Table Metabolomics, change in metabolite level after compound treatment) is reported as 0.2218. The UTP in experiment [2] (metabolite UTP, S2 Table Metabolomics, change in metabolite level after compound treatment) was -0.6427. Further, in experiment [2] (metabolite a-ketoglutarate, S2 Table Metabolomics), the a-ketoglutarate is given as -0.4073. The citrate/isocitrate in experiment [2] (metabolite citrate/isocitrate, S2 Table Metabolomics, change in metabolite level after compound treatment) is listed as -0.6633. The cytidine in experiment [2] (metabolite cytidine, S2 Table Metabolomics) is listed as 0.3233. Moreover, the dATP in experiment [2] (metabolite dATP, S2 Table Metabolomics) is reported as -0.3558. The dGMP/AMP in [2] (metabolite dGMP/AMP, S2 Table Metabolomics, change in metabolite level after compound treatment) turned out to be 1.003. Further, in experiment [2] (metabolite fumarate, S2 Table Metabolomics, change in metabolite level after compound treatment), the fumarate came to 0.7684. Moreover, the glucose-1/6-phosphate in [2] (metabolite glucose-1/6-phosphate, S2 Table Metabolomics, change in metabolite level after compound treatment) came to 0.09231. In addition, the glycerate in experiment [2] (metabolite glycerate, S2 Table Metabolomics, change in metabolite level after compound treatment) is 0.7592. For the same compound, the guanine in experiment [2] (metabolite guanine, S2 Table Metabolomics, change in metabolite level after compound treatment) amounted to 0.5811. The guanosine in experiment [2] (metabolite guanosine, S2 Table Metabolomics, change in metabolite level after compound treatment) amounted to 0.453. Moreover, in experiment [2] (metabolite hypoxanthine, S2 Table Metabolomics), the hypoxanthine was -0.3137. For the same compound, the indole in [2] (metabolite indole, S2 Table Metabolomics) is -0.03187. Besides, in experiment [2] (metabolite inosine, S2 Table Metabolomics, change in metabolite level after compound treatment), the inosine is on record as -0.01435. For the same compound, in [2] (setting [10]), the 2_3-Diphosphoglyceric acid was -0.3266, the 4-phosphopantothenate was 0.2237, the 6-phospho-D-gluconate is -0.02611 and the FMN is reported as -0.396. In addition, in experiment [2] (setting [10]), the IMP was 0.3236, the Pyrophosphate is on record as -0.313, the Sedoheptoluse bisphosphate worked out at 0.4531 and the cyclic-AMP is -0.3476. Moreover, in experiment [2] (setting [10]), the glutathione disulfide is -0.09654, the lactate is given as -0.002939 and the myo-inositol is listed as 0.6827. For the same compound, the nicotinate in experiment [2] (metabolite nicotinate, S2 Table Metabolomics) is on record as -0.01109. Moreover, in experiment [2] (metabolite ornithine, S2 Table Metabolomics), the ornithine is recorded as 0.1416. In addition, the phosphoenolpyruvate in experiment [2] (metabolite phosphoenolpyruvate, S2 Table Metabolomics) was -0.5207. The pyruvate in [2] (metabolite pyruvate, S2 Table Metabolomics, change in metabolite level after compound treatment) was -0.2034. In experiment [2] (metabolite ribose-phosphate, S2 Table Metabolomics), the ribose-phosphate was -0.6476. The sarcosine/alanine in experiment [2] (metabolite sarcosine/alanine, S2 Table Metabolomics, change in metabolite level after compound treatment) is -0.2856. In addition, the sn-glycerol-3-phosphate in [2] (metabolite sn-glycerol-3-phosphate, S2 Table Metabolomics) is reported as -0.6027. The succinate/methylmalonic acid in experiment [2] (metabolite succinate/methylmalonic acid, S2 Table Metabolomics, change in metabolite level after compound treatment) is -0.3004. Further, in [2] (metabolite uridine, S2 Table Metabolomics, change in metabolite level after compound treatment), the uridine is -0.07558. Besides, the xanthosine in experiment [2] (metabolite xanthosine, S2 Table Metabolomics, change in metabolite level after compound treatment) was -1.8392. Also, in experiment [3], the IC50 was less than 350 nM. In addition, in experiment [4], the EC50 was 450 nM. Besides, the EC50 with P. falciparum amounted to 142 nM. For the same compound, the “candidate inhibitors of PfPMT activity (yeast functional assay)” value at PfPMT is “candidate inhibitors of PfPMT activity”.
As for `CN(C)CCNc1cc(-c2ccccc2)nc2ccccc12` [MMV006704], the “non-toxic compounds active against T. gondii” value (“non-toxic compounds active” for short) with Toxoplasma gondii TS-4 is recorded as “active”.
Consider `Clc1ccc2c(N3CCCC3)ccnc2c1` [MMV007363], for which, in the experiment with Toxoplasma gondii TS-4, the “non-toxic compounds active” value is recorded as “active”.
Turning to `CCOc1ccccc1NC(=O)CN1CCN(C(=O)c2ccco2)CC1` [MMV007791], in the experiment on Toxoplasma gondii TS-4, the “non-toxic compounds active” value is “active”.
As for `CCCCN(CCCC)S(=O)(=O)c1ccc(NC(=O)c2ccco2)cc1` [MMV007881], in the experiment with Toxoplasma gondii TS-4, the “non-toxic compounds active” value is “active”.
Consider `CCCc1c(C)nc2ccc(Br)cc2c1O` [MMV666095], for which, in the experiment on Toxoplasma gondii TS-4, the “non-toxic compounds active” value is on record as “active”.
With `CCCCCCCCCCCCCCCCOP(=O)([O-])OCC[N+](C)(C)C` [Miltefosine, reference compound], the IC50 in experiment [5] was 7100 nM and 9000 nM.
Take `CN(C)c1ccc2nc3ccc(=[N+](C)C)cc-3sc2c1` [methylene blue, reference compound]: the EC50 in [6] was 30 nM; in experiment [7], 38 nM; in [8], 280 nM; in experiment [9], 287 nM.
